Results taken from patent US20070093520A1, “Method of treatment of diarrhea-predominant irritable bowel syndrome in a subject” (priority 2005, published 2007).

System: diarrhea-predominant IBS subjects
Type: in vivo, human
Details: TEAE incidence, 2 mg, Safety Population
Method: The study was performed in approximately 150 study centers. Approximately 1600 eligible subjects were to be given cilansetron 2 mg TID. At Visit 1, pre-treatment assessments were conducted. […] Subjects were to return to the study site one month later for Visit 3 (Day 31) for their first interim assessment. […] All subjects who discontinued from the study were to have the same post-study assessments required at Visit 7 performed at their early termination visit. […]
Stool specimens were analyzed at every visit for occult blood. An independent GERB had been established to provide advice on GI AEs during the course of the study.
Adverse events were assessed at Baseline, at each clinic visit, and at the end of the study (Month 12 or the early termination visit). All AEs, which occurred during the study were followed up in accordance with good medical practice until resolved or judged no longer clinically significant, or if a condition was chronic, until fully characterized. Adverse events could occur in the specified follow-up period and, regardless of the interval since the last administration of the study medication, were treated in the same manner as an AE which occurred during the treatment with study medication. Each AE was evaluated for duration, severity, seriousness, and causal relationship to the investigational drug. The action taken and the outcome were also recorded.
Specifically, subjects who were lost to follow-up and had no post-Baseline contact with the site were excluded from the Safety population. The subjects who discontinued from the study due to lost to follow-up were identified based on the information collected on the study termination CRF page.
After the pretreatment assessment at Visit 1 (Days […] to −3), subjects were to return to the study site for a Baseline assessment and start the treatment at Visit 2 (Day 1).
For the by time-interval analyses of disposition, prevalence of AEs, and of markedly abnormal and predefined changes in laboratory values, vital signs, and ECGs, the following interval windows were used:
Adverse events that were already present prior to the first dose of cilansetron study medication but increased in severity afterwards were considered as treatment-emergent.
The 5% cutoff point was based on the incidence within higher level terms.
Subjects were counted at most once for each primary system organ class and preferred term. Serious AEs that resolved prior to receiving study medication or occurred more than 30 days after the last dose of study medication were not included in the incidence tables. A listing of all SAEs is presented; SAEs with onset prior to receiving study medication or more than 30 days after discontinuation of study medication were flagged. The listing presents lower level term and preferred term of the SAE, severity, action taken, outcome, and relationship of the SAE, start and stop date of the SAE, study day of onset of the SAE, age, race, and sex.

SMILES: Cc1nccn1C[C@H]1CCc2c(c3cccc4c3n2CCC4)C1=O [cilansetron, (R)-(−)-4,5,6,8,9,10-hexahydro-10-[(2-methyl-1H-imidazol-1-yl)methyl]-11H-pyrido-[3,2,1-jk]-carbazol-11-one]
- Neurosis NOS (PT): 5 (<1%) n (%)
- Nightmare (PT): 2 (<1%) n (%)
- Nocturia (PT): 1 (<1%) n (%)
- Oedema Peripheral (PT): 1 (<1%) n (%)
- Oligomenorrhoea NOS* (PT): 2 (<1%) n (%)
- Onychoschizia (PT): 1 (<1%) n (%)
- Osteoarthritis Aggravated (PT): 1 (<1%) n (%)
- Osteochondrosis (PT): 1 (<1%) n (%)
- Osteoporosis NOS (PT): 4 (<1%) n (%)
- Ovarian Cyst* (PT): 2 (<1%) n (%)
- Overweight (PT): 1 (<1%) n (%)
- Pain NOS (PT): 5 (<1%) n (%)
- Pain in Limb (PT): 11 (<1%) n (%)
- Palpitations (PT): 5 (<1%) n (%)
- Panic Disorder NOS (PT): 4 (<1%) n (%)
- Peripheral Swelling (PT): 3 (<1%) n (%)
- Pharyngitis (PT): 27 (2%) n (%)
- Pharyngolaryngeal Pain (PT): 2 (<1%) n (%)
- Photodermatosis (PT): 1 (<1%) n (%)
- Polyarthritis (PT): 1 (<1%) n (%)
- Polymenorrhoea* (PT): 1 (<1%) n (%)
- Polymyalgia (PT): 1 (<1%) n (%)
- Polyuria (PT): 2 (<1%) n (%)
- Post Procedural Haemorrhage (PT): 1 (<1%) n (%)
- Post Procedural Pain (PT): 4 (<1%) n (%)
- Postmenopausal Haemorrhage* (PT): 1 (<1%) n (%)
- Postmenopausal Symptoms* (PT): 1 (<1%) n (%)
- Productive Cough (PT): 1 (<1%) n (%)
- Prostatic Pain* (PT): 1 (<1%) n (%)
- Prostatitis* (PT): 3 (<1%) n (%)
- Proteinuria (PT): 2 (<1%) n (%)
- Pruritus Generalised (PT): 2 (<1%) n (%)
- Pruritus NOS (PT): 11 (<1%) n (%)
- Psoriasis (PT): 5 (<1%) n (%)
- Pyoderma (PT): 1 (<1%) n (%)
- Pyrexia (PT): 20 (1%) n (%)
- Radius Fracture (PT): 2 (<1%) n (%)
- Rash Generalised (PT): 3 (<1%) n (%)
- Rash NOS (PT): 10 (<1%) n (%)
- Rash Papular (PT): 1 (<1%) n (%)
- Rash Pruritic (PT): 1 (<1%) n (%)
- Renal Colic (PT): 4 (<1%) n (%)
- Renal Cyst NOS (PT): 1 (<1%) n (%)
- Respiratory Disorder NOS (PT): 1 (<1%) n (%)
- Restlessness (PT): 1 (<1%) n (%)
- Rheumatoid Arthritis (PT): 1 (<1%) n (%)
- Rheumatoid Arthritis Aggravated (PT): 1 (<1%) n (%)
- Rhinitis Allergic NOS (PT): 4 (<1%) n (%)
- Rhinitis NOS (PT): 4 (<1%) n (%)
- Rhinorrhoea (PT): 2 (<1%) n (%)
- Rib Fracture (PT): 2 (<1%) n (%)
- Road Traffic Accident (PT): 1 (<1%) n (%)
- Rosacea (PT): 1 (<1%) n (%)
- Scar (PT): 1 (<1%) n (%)
- Scleroderma (PT): 1 (<1%) n (%)
- Seborrhoea (PT): 1 (<1%) n (%)
- Sensation of Foreign Body NOS (PT): 1 (<1%) n (%)
- Sinus Arrhythmia (PT): 2 (<1%) n (%)
- Sinus Bradycardia (PT): 3 (<1%) n (%)
- Sinus Congestion (PT): 1 (<1%) n (%)
- Sinus Tachycardia (PT): 9 (<1%) n (%)
- Skin Disorder NOS (PT): 1 (<1%) n (%)
- Skin Eruption (PT): 1 (<1%) n (%)
- Skin Inflammation NOS (PT): 1 (<1%) n (%)
- Skin Necrosis (PT): 1 (<1%) n (%)
- Skin Odour Abnormal (PT): 1 (<1%) n (%)
- Skin Ulcer (PT): 1 (<1%) n (%)
- Sleep Disorder NOS (PT): 2 (<1%) n (%)
- Sneezing (PT): 2 (<1%) n (%)
- Snoring (PT): 1 (<1%) n (%)
- Soft Tissue Injury NOS (PT): 1 (<1%) n (%)
- Solar Keratosis (PT): 1 (<1%) n (%)
- Spinal Osteoarthritis (PT): 1 (<1%) n (%)
- Spondylosis (PT): 2 (<1%) n (%)
- Sputum Discoloured (PT): 1 (<1%) n (%)
- Stress Incontinence (PT): 2 (<1%) n (%)
- Stress Symptoms (PT): 8 (<1%) n (%)
- Supraventricular Extrasystoles (PT): 1 (<1%) n (%)
- Sweating Increased (PT): 7 (<1%) n (%)
- Tachycardia NOS (PT): 3 (<1%) n (%)
- Tachycardia Paroxysmal NOS (PT): 1 (<1%) n (%)
- Tendon Injury (PT): 1 (<1%) n (%)
- Tendonitis (PT): 3 (<1%) n (%)
- Thermal Burn (PT): 1 (<1%) n (%)
- Thirst (PT): 1 (<1%) n (%)
- Toe Deformities NOS (PT): 1 (<1%) n (%)
- Tonsillar Hypertrophy (PT): 1 (<1%) n (%)
- Traumatic Chest Injury NOS (PT): 1 (<1%) n (%)
- Upper Respiratory Tract Inflammation (PT): 1 (<1%) n (%)
- Urethral Stricture (PT): 1 (<1%) n (%)
- Urinary Frequency (PT): 5 (<1%) n (%)
- Urinary Incontinence (PT): 4 (<1%) n (%)
- Urinary Incontinence Aggravated (PT): 1 (<1%) n (%)
- Urine Odour Abnormal (PT): 1 (<1%) n (%)
- Urticaria NOS (PT): 4 (<1%) n (%)
- Uterine Cervical Erosion* (PT): 1 (<1%) n (%)
- Uterine Prolapse* (PT): 1 (<1%) n (%)
- Vaginal Prolapse* (PT): 1 (<1%) n (%)
- Ventricular Extrasystoles (PT): 3 (<1%) n (%)
- Ventricular Hypertrophy (PT): 1 (<1%) n (%)
- Vitamin B12 Deficiency (PT): 2 (<1%) n (%)
- Weakness (PT): 14 (<1%) n (%)
- Weight Fluctuation (PT): 1 (<1%) n (%)
- Wheezing (PT): 1 (<1%) n (%)
- Wrist Fracture (PT): 2 (<1%) n (%)
- Cardiac Disorders (SOC): 46 (3%) n (%)
- General Disorders and Administration Site Conditions (SOC): 85 (6%) n (%)
- Injury, Poisoning and Procedural Complications (SOC): 59 (4%) n (%)
- Metabolism and Nutrition Disorders (SOC): 54 (4%) n (%)
- Psychiatric Disorders (SOC): 74 (5%) n (%)
- Renal and Urinary Disorders (SOC): 40 (3%) n (%)
- Reproductive System and Breast Disorders (SOC): 38 (3%) n (%)
- Respiratory, Thoracic and Mediastinal Disorders (SOC): 91 (6%) n (%)
- Skin and Subcutaneous Tissue Disorders (SOC): 70 (5%) n (%)
